ChEMBL document CHEMBL1641465, “2,4-Diaminopyrimidine inhibitors of c-Met kinase bearing benzoxazepine anilines” (Bioorg Med Chem Lett, 2011)

Assays:
[1] = AUC (0 to infinity) in rat at 5 mg/kg, po; type: ADME, organism-based; set-up: time infinity, dose 5 mg/kg, route oral; conditions: plasma
[2] = Half life in rat at 1 mg/kg, iv; type: ADME, organism-based; set-up: dose 1 mg/kg, route intravenous; conditions: in vivo
[3] = Clearance in rat at 1 mg/kg, iv; type: ADME, organism-based; set-up: dose 1 mg/kg, route intravenous; conditions: in vivo
[4] = Drug level in tumor of human GTL16 cells xenografted in mouse assessed as tumor regression at 100 mg/kg, po qd for 5 days 10 hrs after last dose; type: ADME, organism-based, Neoplasm; set-up: dose 100 mg/kg, route oral; conditions: read-out: Drug uptake
[5] = AUC (0 to infinity) in rat at 1 mg/kg, iv; type: ADME, organism-based; set-up: time infinity, dose 1 mg/kg, route intravenous; conditions: plasma
[6] = Oral bioavailability in rat at 5 mg/kg; type: ADME, organism-based; conditions: in vivo
[7] = Drug level in tumor of human GTL16 cells xenografted in mouse assessed as tumor regression at 100 mg/kg, po qd for 5 days 2 to 10 hrs after last dose; type: ADME, organism-based, Neoplasm; set-up: dose 100 mg/kg, route oral; conditions: in vivo

| AUC(0-inf) [1] | half-life [2] | clearance [3] | concentration at 10 h [4] | AUC(0-inf) [5] | bioavailability [6] | Drug uptake [7] | SMILES |
| --- | --- | --- | --- | --- | --- | --- | --- |
| < 100 ng·h/mL |  |  |  |  |  |  | CCN1CCCOc2cc(Nc3ncc(Cl)c(Nc4c(F)cccc4C(=O)NC)n3)ccc21 |
| < 100 ng·h/mL |  |  |  |  |  |  | CNC(=O)c1cccc(F)c1Nc1nc(Nc2ccc3c(c2)OCCCN3CCN2CCCC2)ncc1Cl |
|  | 18 min | 34 mL/min/kg | > 200 ng/g |  |  |  | CNC(=O)c1cccc(F)c1Nc1nc(Nc2ccc3c(c2)OCCCN3)ncc1Cl |
| 913 ng·h/mL | 72 min | 15.3 mL/min/kg |  | 1220 ng·h/mL | 15% | 125 ng/g | CCOC(=O)N1CCCOc2cc(Nc3ncc(Cl)c(Nc4c(F)cccc4C(=O)NC)n3)ccc21 |
